Results reported in patent EP0260744B1, “(1H-imidazol-1-ylmethyl) substituted benzimidazole derivatives” (JANSSEN PHARMACEUTICA N.V., priority 1986, dated 1988).

These molecules were tested on Plasma testosterone concentrations (assay: Testosterone in vivo test). Conditions: Rattus norvegicus, 2 h; male rats, oral; LHRH-analogue i.m. after one hour; plasma testosterone two hours after administration; 50% inhibition relative to placebo.
Experimental: Male rats were administered orally a test compound as a solution or as a suspension in aqueous medium. One hour following drug or placebo administration, a luteinizing hormone releasing hormone- analogue was injected intramuscularly and an anaesthetic was administered intraperitonally. Two hours after the oral administration of the test compound the rats were decapitated, and the blood was collected on heparine. Plasma testosterone concentrations were measured by standard radio-immunological procedures. A 50% inhibition relative to the placebo values was considered as the criterion of testosterone inhibitory activity. ED50-values were determined by probit analysis.

Structure (SMILES)	ED50 [mg/kg]
Cn1cnc2cc(C(c3ccccc3)n3ccnc3)ccc21 (centres unmarked) [Compound 28]	2.5
Cn1c(-c2ccccc2)nc2ccc(C(c3ccccc3)n3ccnc3)cc21 (centres unmarked) [Compound 30]	2.5
c1csc(C(c2ccc3[nH]c(-c4cscn4)nc3c2)n2ccnc2)c1 (centres unmarked) [Compound 34]	2.5
COc1ccc(-c2nc3cc(C(c4ccccc4)n4ccnc4)ccc3[nH]2)cc1 (centres unmarked) [Compound 49]	< 2.5
c1cn(Cc2ccc3[nH]c(-c4cscn4)nc3c2)cn1 [Compound 51]	2.5
Nc1ncccc1-c1nc2cc(Cn3ccnc3)ccc2[nH]1 [Compound 53]	2.5
CCC(c1ccc2[nH]c(-c3ccccc3)nc2c1)n1ccnc1 (centres unmarked) [Compound 54]	2.5
c1ccc2c(Cc3nc4cc(Cn5ccnc5)ccc4[nH]3)c[nH]c2c1 [Compound 71]	2.5
CC(c1ccc2[nH]c(C(F)F)nc2c1)n1ccnc1 (centres unmarked) [Compound 78]	< 2.5
CCC(c1ccc2[nH]c(C(F)(F)F)nc2c1)n1ccnc1 (centres unmarked) [Compound 83, 5-[1-(1 H-imidazol-1-yl)propyl]-2-(trifluoromethyl)-1 H-benzimidazole]	< 2.5
CC(C)C(c1ccc2[nH]c(C(F)(F)F)nc2c1)n1ccnc1 (centres unmarked) [Compound 84, 5-[1-(1 H-imidazol-1-yl)-2-methylpropyl]-2-(trifluoromethyl)-1 H-benzimidazole ethanedioate(1:1).hemihydrate]	< 2.5
Fc1ccccc1-c1nc2ccc(C(c3ccccc3)n3ccnc3)cc2[nH]1 (centres unmarked) [Compound 92, 2-(2-fluorophenyl)-5-[(1 H-imidazol-1-yl)phenylmethyl]-1H-benzimidazole ethanedioate(2:3)]	< 2.5
Clc1cccc(C(c2ccc3[nH]cnc3c2)n2ccnc2)c1 (centres unmarked) [Compound 93, 5-[(3-chlorophenyl)-(1 H-imidazol-1-yl)methyl]-1 H-benzimidazole]	2.5
c1ccc(Cn2cnc3ccc(Cn4ccnc4)cc32)cc1 [Compound 102]	< 2.5
c1ccc(C(c2ccc3[nH]cnc3c2)n2ccnc2)cc1 (centres unmarked) [Compound 111, 5-[(1 H-imidazol-1-yl)phenylmethyl]-1 H-benzimidazole]	< 10
c1cncc(C(c2ccc3[nH]cnc3c2)n2ccnc2)c1 (centres unmarked) [Compound 112, 5-[(1 H-imidazol-1-yl)(3-pyridinyl)methyl]-1 H-benzimidazole]	2.5
c1csc(C(c2ccc3[nH]cnc3c2)n2ccnc2)c1 (centres unmarked) [Compound 113, 5-[(1H-imidazol-1-yl)(2-thienyl)methyl]-1H-benzimidazole]	< 10
COc1nc2cc(C(c3ccccc3)n3ccnc3)ccc2[nH]1 (centres unmarked) [Compound 115, 5-[(1 H-imidazol-1-yl)phenylmethyl]-2-methoxy-1 H-benzimidazole]	2.5
CCC(c1ccc2[nH]cnc2c1)n1ccnc1.Cl.Cl (centres unmarked) [Compound 119, 5-[1-(1 H-imidazol-1-yl)propyl]-1 H-benzimidazole dihydrochloride]	2.5

Structure (SMILES)	ED50 [mg/kg]
Cc1nc2cc(C(c3cccc(Cl)c3)n3ccnc3)ccc2[nH]1 (centres unmarked) [Compound 122, 5-[(3-chlorophenyl)(1 H-imidazol-1-yl)methyl]-2-methyl-1 H-benzimidazole]	2.5
Cc1nc2cc(C(c3cccs3)n3ccnc3)ccc2[nH]1 (centres unmarked) [Compound 125]	2.5
Cc1nc2cc(C(c3ccc(Cl)cc3Cl)n3ccnc3)ccc2[nH]1 (centres unmarked) [Compound 127]	10
CCCCCc1nc2cc(Cn3ccnc3)ccc2[nH]1 [Compound 133]	< 2.5
CCCCCc1nc2cc(C(c3ccccc3)n3ccnc3)ccc2[nH]1 (centres unmarked) [Compound 136]	< 2.5
Fc1cccc(-c2nc3cc(Cn4ccnc4)ccc3[nH]2)c1 [Compound 141]	2.5
Fc1ccc(-c2nc3cc(Cn4ccnc4)ccc3[nH]2)cc1 [Compound 142]	2.5
Cc1nc2cc(C(C(C)C)n3ccnc3)ccc2n1C (centres unmarked) [Compound 160]	2.5
Cc1ccc(-c2nc3cc(C(c4ccccc4)n4ccnc4)ccc3[nH]2)cc1 (centres unmarked) [Compound 173]	< 2.5
Fc1ccc(-c2nc3cc(C(c4ccccc4)n4ccnc4)ccc3[nH]2)cc1 (centres unmarked) [Compound 174]	< 2.5
Cc1nc2cc(C(C(C)C)n3ccnc3)ccc2[nH]1 (centres unmarked) [Compound 182]	2.5
CC(c1ccc2[nH]c(-c3cccnc3)nc2c1)n1ccnc1 (centres unmarked) [Compound 189, 5-[1-(1H-imidazol-1-yl)ethyl]-2-(3-pyridinyl)-1H-benzimidazole]	2.5
c1ccc(C(c2ccc3[nH]c(-c4cccnc4)nc3c2)n2ccnc2)cc1 (centres unmarked) [Compound 190, 5-[(1 H-imidazol-1-yl)phenylmethyl]-2-(3-pyridinyl)-1H-benzimidazole]	10
Cc1nc2cc(C(C)n3ccnc3)ccc2[nH]1.Cl.Cl (centres unmarked) [Compound 206, 5-[1-(1 H-imidazol-1-yl)ethyl]-2-methyl-1 H-benzimidazole dihydrochloride]	< 2.5
Cn1c(O)nc2cc(Cn3ccnc3)ccc21 [Compound 222, 5-(1 H-imidazol-1-ylmethyl)-1-methyl-1 H-benzimidazol-2-ol]	< 2.5
COn1c(-c2ccccc2)nc2ccc(Cn3ccnc3)cc21 [Compound 227, 6-(1 H-imidazol-1-ylmethyl)-1-methoxy-2-phenyl-1 H-benzimidazole]	2.5
COn1c(-c2cccnc2)nc2ccc(Cn3ccnc3)cc21 [Compound 229]	2.5
COn1c(C)nc2ccc(C(c3ccccc3)n3ccnc3)cc21 (centres unmarked) [Compound 231]	2.5
COn1c(-c2ccc(F)cc2)nc2ccc(C(C)n3ccnc3)cc21 (centres unmarked) [Compound 235]	2.5
